Data as given in patent publication EP0982026A2, “Use of aryl-cyclohexylamine derivatives in the manufacture of NMDA receptor blockers” (priority 1998, dated 2000).

Target: T1, NMDA receptor (Rattus norvegicus, UniProt P35439+Q00960)
T1 construct: Membranes were prepared by homogenization of the whole brain minus cerebellum and medulla oblongata; from tissue; host or cells: rat whole brain minus cerebellum and medulla oblongata (membranes)
Test: 3H-Ro 25-6981 binding (displacement) on rat brain membranes
Set-up: species or system Füllinsdorf albino rats
Conditions: not given
Experimental: 3H-Ro 25-6981 binding (Ro 25-6981 is [R-(R*,S*)]-a-(4-Hydroxy-phenyl)-b-methyl-4-(phenyl-methyl)-1-piperidine propanol)
Male Füllinsdorf albino rats weighing between 150-200 g were used. Membranes were prepared by homogenization of the whole brain minus cerebellum and medulla oblongata with a Polytron (10.000 rpm, 30 seconds), in 25 volumes of a cold Tris-HCl 50 mM, EDTA 10 mM, pH 7.1 buffer. The homogenate was centrifuged at 48.000 g for 10 minutes at 4°C. The pellet was resuspended using the Polytron in the same volume of buffer and the homogenate was incubated at 37°C for 10 minutes. After centrifugation the pellet was homogenized in the same buffer and frozen at -80°C for at least 16 hours but not more than 10 days. For the binding assay the homogenate was thawed at 37°C, centrifuged and the pellet was washed three times as above in a Tris-HCl 5 mM, pH 7.4 cold buffer. The final pellet was resuspended in the same buffer and used at a final concentration of […] of protein/ml.
3H-Ro 25-6981 binding experiments were performed using a Tris-HCl 50 mM, pH 7.4 buffer. For displacement experiments 5 nM of 3H-Ro 25-6981 were used and non specific binding was measured using 10 mM of tetrahydroisoquinoline and usually it accounts for 10% of the total. The incubation time was 2 hours at 4°C and the assay was stopped by filtration on Whatmann GF/B glass fiber filters (Unifilter-96, Packard, Zürich, Switzerland). The filters were washed 5 times with cold buffer. The radioactivity on the filter was counted on a Packard Top-count microplate scintillation counter after addition of […] of microscint 40 (Canberra Packard S.A., Zürich, Switzerland).
The effects of compounds were measured using a minimum of 8 concentrations and repeated at least once. The pooled normalized values were analyzed using a non-linear regression calculation program which provide IC50 with their relative upper and lower 95% confidence limits (RS1, BBN, USA).

T1 sequence (Q00960 27-1482, other chains not shown): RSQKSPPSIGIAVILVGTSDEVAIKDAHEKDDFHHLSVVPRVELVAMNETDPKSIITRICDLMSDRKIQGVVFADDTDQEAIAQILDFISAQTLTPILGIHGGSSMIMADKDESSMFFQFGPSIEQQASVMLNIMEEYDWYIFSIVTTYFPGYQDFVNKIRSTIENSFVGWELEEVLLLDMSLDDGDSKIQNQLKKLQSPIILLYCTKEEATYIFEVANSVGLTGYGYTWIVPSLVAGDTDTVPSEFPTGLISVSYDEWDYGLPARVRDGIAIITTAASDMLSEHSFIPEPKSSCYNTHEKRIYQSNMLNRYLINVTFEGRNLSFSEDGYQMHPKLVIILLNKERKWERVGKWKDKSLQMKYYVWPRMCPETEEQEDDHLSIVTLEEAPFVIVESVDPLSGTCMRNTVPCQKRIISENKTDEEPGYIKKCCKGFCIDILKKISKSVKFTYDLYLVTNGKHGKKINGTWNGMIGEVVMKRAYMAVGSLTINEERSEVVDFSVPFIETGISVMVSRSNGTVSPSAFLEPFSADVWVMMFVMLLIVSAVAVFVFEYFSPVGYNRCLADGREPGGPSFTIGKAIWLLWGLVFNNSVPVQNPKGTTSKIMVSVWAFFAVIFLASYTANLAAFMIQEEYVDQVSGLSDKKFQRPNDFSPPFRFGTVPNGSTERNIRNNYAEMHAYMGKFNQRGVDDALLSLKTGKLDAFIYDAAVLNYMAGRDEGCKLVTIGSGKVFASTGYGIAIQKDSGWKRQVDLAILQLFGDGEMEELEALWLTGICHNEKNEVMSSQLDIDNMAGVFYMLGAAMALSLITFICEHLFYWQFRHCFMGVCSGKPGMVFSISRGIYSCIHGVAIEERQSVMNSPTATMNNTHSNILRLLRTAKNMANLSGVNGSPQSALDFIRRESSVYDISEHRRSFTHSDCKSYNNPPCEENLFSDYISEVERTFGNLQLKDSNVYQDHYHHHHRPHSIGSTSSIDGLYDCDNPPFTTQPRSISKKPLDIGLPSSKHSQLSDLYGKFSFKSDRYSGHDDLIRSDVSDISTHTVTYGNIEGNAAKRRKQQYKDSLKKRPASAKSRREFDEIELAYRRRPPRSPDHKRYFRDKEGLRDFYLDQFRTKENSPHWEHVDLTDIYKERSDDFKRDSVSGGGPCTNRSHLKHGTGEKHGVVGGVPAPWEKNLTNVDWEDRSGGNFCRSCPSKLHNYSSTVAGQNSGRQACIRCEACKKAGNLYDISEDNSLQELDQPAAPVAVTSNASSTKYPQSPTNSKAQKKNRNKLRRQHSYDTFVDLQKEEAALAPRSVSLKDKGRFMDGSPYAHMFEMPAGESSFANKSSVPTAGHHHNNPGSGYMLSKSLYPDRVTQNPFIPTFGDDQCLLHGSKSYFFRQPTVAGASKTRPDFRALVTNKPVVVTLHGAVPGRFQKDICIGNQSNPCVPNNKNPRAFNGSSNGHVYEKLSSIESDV

Compound | IC50
Oc1ccc(C2(O)CCC(NCCCc3ccccc3)CC2)cc1 (stereo not drawn) [Example 71c, cis-4-[1-Hydroxy-4-(3-phenyl-propylamino)-cyclohexyl]-phenol] | 25 nM
Oc1ccc([C@H]2OC[C@H](NCCCc3ccccc3)CO2)cc1 [Example 85, trans-4-[5-(3-Phenyl-propylamino)-[1,3]dioxan-2-yl]-phenol 1:1 but-2-enedioic acid] | 22 nM

Same assay, conditions: displacement of 5 nM 3H-Ro 25-6981; rat whole brain membranes (minus cerebellum and medulla oblongata); 2 hours at 4°C; read-out: IC50

Compound | IC50
Oc1ccc([C@H]2CC[C@H](NCC(O)Cc3ccccc3)CC2)cc1 (mixture of isomers) [Example 50, (RS)-4-[trans-4-(2-Hydroxy-3-phenyl-propylamino)-cyclohexyl]-phenol] | 80 nM
CC(CCc1ccccc1)N(C)[C@H]1CC[C@H](c2ccc(O)cc2)CC1 (mixture of isomers) [Example 57b, (RS)-4-[trans-4-[Methyl-(1-methyl-3-phenyl-propyl)-amino]-cyclohexyl]-phenol] | 10 nM
CC(CCc1ccccc1)N[C@H]1CC[C@H](c2ccc(O)cc2)CC1 (mixture of isomers) [Example 58, 4-[trans-4-[(RS)-1-Methyl-3-phenyl-propylamino)-cyclohexyl]-phenol] | 40 nM
CN(CCC(O)c1ccccc1)[C@H]1CC[C@H](c2ccc(O)cc2)CC1 (mixture of isomers) [Example 63b, (RS)-4-[trans-4-[(3-Hydroxy-3-phenyl-propyl)-methyl-amino]-cyclohexyl]-phenol] | 20 nM
Oc1ccc([C@H]2CC[C@H](NCCC(O)c3ccccc3)CC2)cc1 (mixture of isomers) [Example 64b, (RS)-4-[trans-4-(3-Hydroxy-3-phenyl-propylamino)-cyclohexyl]-phenol] | 60 nM
CN(C(CO)CCc1ccccc1)[C@H]1CC[C@H](c2ccc(O)cc2)CC1 (mixture of isomers) [Example 65b, (RS)-4-[trans-4-[(1-Hydroxymethyl-3-phenyl-propyl)-methyl-amino]-cyclohexyl]-phenol] | 10 nM
OCC(CCc1ccccc1)N[C@H]1CC[C@H](c2ccc(O)cc2)CC1 (mixture of isomers) [Example 66c, (RS)-4-[trans-4-(1-Hydroxymethyl-3-phenyl-propylamino)-cyclohexyl]-phenol] | 20 nM
CN(CCC(CO)c1ccccc1)[C@H]1CC[C@H](c2ccc(O)cc2)CC1 (mixture of isomers) [Example 67b, (RS)-4-[trans-4-[(4-Hydroxy-3-phenyl-butyl)-methyl-amino]-cyclohexyl]-phenol] | 100 nM
OCC(CN[C@H]1CC[C@H](c2ccc(O)cc2)CC1)Cc1ccccc1 (mixture of isomers) [Example 70b, (RS)-4-[trans-4-(2-Hydroxymethyl-3-phenyl-propylamino)-cyclohexyl]-phenol] | 100 nM
C[C@@H]1C[C@H](c2ccc(O)cc2)CC[C@H]1N(C)CCCc1ccccc1 (racemic) [Example 73b, (1RS,3RS,4RS)-4-[3-Methyl-4-[methyl-(3-phenyl-propyl)-amino]-cyclohexyl]-phenol] | 10 nM
C[C@@H]1C[C@H](c2ccc(O)cc2)CC[C@H]1NCCCc1ccccc1 (racemic) [Example 74c, (1RS,3RS,4RS)-4-[3-Methyl-4-(3-phenyl-propylamino)-cyclohexyl]-phenol] | 10 nM
C[C@@H]1CN(c2ccc(O)cc2)CC[C@@H]1NCCCc1ccccc1 (racemic) [Example 81g, (3RS,4SR)-4-[3-Methyl-4-(3-phenyl-propylamino)-piperidin-1-yl]-phenol] | 27 nM
Oc1ccc([C@H]2CC[C@H](NCCCc3ccccc3)CC2)cc1 [Example 22b, trans-4-[4-(3-Phenyl-propylamino)-cyclohexyl]-phenol] | 20 nM
Oc1ccc([C@H]2CC[C@H](NCCCCc3ccccc3)CC2)cc1 [Example 24, trans-4-[4-(4-Phenyl-butylamino)-cyclohexyl]-phenol] | 70 nM
CN(CCCc1ccccc1)[C@H]1CC[C@H](c2ccc(O)cc2)CC1 [Example 39b, trans-4-{4-[Methyl-(3-phenyl-propyl)-amino]-cyclohexyl}-phenol] | 9 nM
CCN(CCCc1ccccc1)[C@H]1CC[C@H](c2ccc(O)cc2)CC1 [Example 40c, trans-4-{4-[Ethyl-(3-phenyl-propyl)-amino]-cyclohexyl}-phenol] | 40 nM
CN(CCOc1ccccc1)[C@H]1CC[C@H](c2ccc(O)cc2)CC1 [Example 41b, trans-4-{4-[Methyl-(2-phenoxy-ethyl)-amino]-cyclohexyl}-phenol] | 20 nM
Oc1ccc([C@H]2CC[C@H](NCCOc3ccccc3)CC2)cc1 [Example 43b, trans-4-[4-(2-Phenoxy-ethylamino)-cyclohexyl]-phenol] | 20 nM
Cc1ccc(OCCN(C)[C@H]2CC[C@H](c3ccc(O)cc3)CC2)cc1 [Example 44b, trans-4-[4-[Methyl-(2-p-tolyloxy-ethyl)-amino]-cyclohexyl]-phenol] | 8 nM
Cc1ccc(OCCN(C)[C@H]2CC[C@@H](c3ccc(O)cc3)CC2)cc1 [Example 45b, cis-4-[4-[Methyl-(2-p-tolyloxy-ethyl)-amino]-cyclohexyl]-phenol] | 130 nM
CN(CCOc1ccc(F)cc1)[C@H]1CC[C@H](c2ccc(O)cc2)CC1 [Example 46b, trans-4-(4-{[2-(4-Fluoro-phenoxy)-ethyl]-methyl-amino}-cyclohexyl)-phenol] | 10 nM
Cc1cccc(OCCN(C)[C@H]2CC[C@H](c3ccc(O)cc3)CC2)c1 [Example 47b, trans-4-{4-[Methyl-(2-m-tolyloxy-ethyl)-amino]-cyclohexyl}-phenol] | 30 nM
Cc1ccccc1OCCN(C)[C@H]1CC[C@H](c2ccc(O)cc2)CC1 [Example 48c, trans-4-{4-[Methyl-(2-o-tolyloxy-ethyl)-amino]-cyclohexyl}-phenol] | 40 nM
CN(CCCc1ccccc1)[C@H]1CC[C@H](c2ccc(NS(C)(=O)=O)cc2)CC1 [Example 56, trans-N-(4-{4-[Methyl-(3-phenyl-propyl)-amino]-cyclohexyl}-phenyl)-methanesulfonamide] | 11 nM
Cc1ccc(CCCN[C@H]2CC[C@H](c3ccc(O)cc3)CC2)cc1 [Example 60b, trans-4-[4-(3-p-Tolyl-propylamino)-cyclohexyl]-phenol] | 7 nM
CN(CCCc1ccc(F)cc1)[C@H]1CC[C@H](c2ccc(O)cc2)CC1 [Example 61b, trans-4-(4-{[3-(4-Fluoro-phenyl)-propyl]-methyl-amino}-cyclohexyl)-phenol] | 4 nM
Oc1ccc([C@H]2CC[C@H](NCCCc3ccc(F)cc3)CC2)cc1 [Example 62b, trans-4-[4-[3-(4-Fluoro-phenyl)-propylamino]-cyclohexyl]-phenol] | 6 nM
CN(CCCc1ccccc1)C1CCN(c2ccc(O)cc2)CC1 [Example 75, 4-[4-[Methyl-(3-phenyl-propyl)-amino]-piperidin-1-yl]-phenol] | 7 nM
Oc1ccc(N2CCC(NCCCc3ccccc3)CC2)cc1 [Example 77, 4-[4-(3-Phenyl-propylamino)-piperidin-1-yl]-phenol] | 7 nM
Oc1ccc(N2CCC(NCCCCc3ccccc3)CC2)cc1 [Example 83c, 4-[4-(4-Phenyl-butylamino)-piperidin-1-yl]-phenol] | 60 nM
